From patent US20050266096A1, “New synergetic compositions of vitamins, minerals and trace-elements to stimulate the elimination of intra-cellular lipid deposits” (priority 2004, published 2005)

Test system: vascular smooth muscle cells
Test: Reduction of intracellular lipid deposits in lipid-loaded cell cultures
Type: cell-based
Conditions: for Percent decrease in intracellular lipids: individual element, concentration per row in μg/ml (0.016% RDA), 3 days after exposure, vs untreated control cultures = 100% lipid deposits, n = 24; for effect on the reduction/elimination of intracellular lipid deposits (in words): tables 1-3
Protocol: To evaluate the effects of vitamins, minerals & trace-elements on the cellular capacity to eliminate intracellular lipid deposits, the cultures of vascular smooth muscle cells were prepared on plastic cover slips in vitro as described by Shrivastava at al (Meth Expt Find,1994).
A 50-60% cell monolayer was obtained within 4 days of culture. The hyperlipidemic rabbit serum was added to the culture medium, cells were incubated at 37° C.-5% CO2 for 48 h and the presence of intracellular cytoplasmic lipid deposit was quantified (considered 100% lipid deposits) . The culture medium was then replaced by a predefined blank medium containing no vitamins, minerals & trace-elements containing 1% fetal calf serum. Desired concentrations of vitamins, minerals and trace-elements were prepared in the predefined control culture medium by dissolving the test substances in the medium and by replacing the culture medium by the test product containing medium.
The in vitro cytoxicity of each vitamin, mineral and trace-element was determined. […]
The results were expressed a mean percentage decrease in intracellular lipid deposits compared to the untreated control cultures considered as containing 100% lipid deposits.

Compound	Percent decrease in intracellular lipids [%]	effect on the reduction/elimination of intracellular lipid deposits (in words)
[I-].[K+] [Iodine, potassium iodide]	0.0	
[O]=[Mg] [Magnesium, magnesium oxide]	22.0 ± 5.2	minor effect
[Cl-].[K+] [Potassium, potassium chloride]	0.0	
CC1=C(/C=C/C(C)=C/C=C/C(C)=C/C=C/C=C(C)/C=C/C=C(C)/C=C/C2=C(C)CCCC2(C)C)C(C)(C)CCC1 [Vitamin A, beta carotene]		minor effect
Cc1cc2nc3c(=O)[nH]c(=O)nc-3n(C[C@H](O)[C@H](O)[C@H](O)CO)c2cc1C [Vitamin B2, riboflavin]		minor effect
Nc1nc2ncc(CNc3ccc(C(=O)N[C@@H](CCC(=O)O)C(=O)O)cc3)nc2c(=O)[nH]1 [Vitamin B9, folic acid]		minor effect
CC(=O)Oc1c(C)c(C)c2c(c1C)CCC(C)(CCC[C@H](C)CCC[C@H](C)CCCC(C)C)O2 (stereo partly drawn) [Vitamin E, tocopherol acetate]		minor effect
[O-2].[Zn+2] [Zinc, zinc oxide]	16.3 ± 4.4	minor effect
calcium gluconate	0.0	
iron gluconate	6.3 ± 2.7	
